Results taken from patent US12357596B2, “Compounds for prevention and treatment of obesity and related disorders” (ABREXA PHARMACEUTICALS, INC., priority 2019, dated 2025).

Test: 28-day once-daily oral gavage toxicity study with 14-day recovery (body weight, food consumption, clinical and anatomic pathology)
Format: in vivo
Details: for Decrease of group mean food consumption compared to Group 1 controls: Days 21 to 28
Procedure: J147 or vehicle was administered once daily to Sprague-Dawley rats via oral gavage for 28 consecutive days at a daily dose of 0, 30, 100 or 300 mg/kg. J174 was prepared in a vehicle formulation comprising 5% ethanol, 5% DMSO and 90% corn oil (v/v/v). Certified rodent diet and water was available ad libitum. Groups 1-4 contained 10 animals/sex/group. Groups 1 (control) and 4 (high dose) also included an additional 5 animals/sex/group for use as recovery animals. The recovery animals were maintained on study for a 14-day postdosing recovery period. Animals in Groups 1-4 were monitored for morbidity and mortality, clinical signs, detailed clinical observations, body weight, food consumption, ophthalmologic parameters, neurobehavioral assessment consisting of a Functional Observational Battery (FOB) and a motor activity test, hematology, coagulation, serum chemistry, and urinalysis parameters. Postmortem assessment included necropsy, measurement of selected organ weights, and microscopic evaluation of a standard set of tissues. Plasma samples for bioanalysis were collected on Days 1 and 28 from satellite toxicokinetic animals in Groups 5 through 8. Animals in these groups were euthanized following the last blood sampling and carcasses were discarded without examination. The study protocol is shown below in Table 1.

[1] = male rats, 30 mg/kg/day, Day 14 → 21
[2] = male rats, 30 mg/kg/day, Day 21 → 28
[3] = male rats, 30 mg/kg/day, Day −1 → 7
[4] = male rats, 100 mg/kg/day, Day 7 → 14
[5] = male rats, 100 mg/kg/day, Day 14 → 21
[6] = male rats, 100 mg/kg/day, Day 21 → 28
[7] = male rats, 100 mg/kg/day, Day 28
[8] = male rats, 100 mg/kg/day, Day −1 → 7
[9] = male rats, 300 mg/kg/day, Day 7 → 14
[10] = male rats, 300 mg/kg/day, Day 14 → 21
[11] = male rats, 300 mg/kg/day, Day 21 → 28
[12] = male rats, 300 mg/kg/day, Day 28
[13] = male rats, 300 mg/kg/day, Day −1 → 7
[14] = rats, both sexes, 300 mg/kg/day
[15] = rats, both sexes, 100 and 300 mg/kg/day

## COc1cccc(/C=N/N(C(=O)C(F)(F)F)c2ccc(C)cc2C)c1 [J147]
[1]
  Mean Bodyweight Gain: 39.61 g
  Mean Food Consumption: 25.03
Male rats, 30 mg/kg/day, Day 21
  Mean Bodyweight: 430.90 g
[2]
  Mean Bodyweight Gain: 34.51 g
  Mean Food Consumption: 25.13
Male rats, 30 mg/kg/day, Day 28
  Mean Bodyweight: 465.41 g
Male rats, 30 mg/kg/day, Day −1 (pre-dose)
  Mean Bodyweight: 285.27 g
[3]
  Mean Bodyweight Gain: 53.64 g
  Mean Food Consumption: 23.90
Male rats, 30 mg/kg/day, Day −1 → 28
  Mean Bodyweight Gain: 180.14 g
Male rats, 30 mg/kg/day, Day −2 (pre-dose)
  Mean Bodyweight: 278.60 g
Male rats, 100 mg/kg/day, Day 7
  Mean Bodyweight: 335.34 g
[4]
  Mean Bodyweight Gain: 41.14 d^2 g
  Mean Food Consumption: 21.47 dd^2
Male rats, 100 mg/kg/day, Day 14
  Mean Bodyweight: 376.48 g
[5]
  Mean Bodyweight Gain: 33.50 g
  Mean Food Consumption: 23.65
Male rats, 100 mg/kg/day, Day 21
  Mean Bodyweight: 409.98 g
[6]
  Mean Bodyweight Gain: 26.89 g
  Mean Food Consumption: 23.73
[7]
  Decrease of group mean body weight compared to Group 1 controls: 5.9%
  Mean Bodyweight: 436.87 g
Male rats, 100 mg/kg/day, Day −1 (pre-dose)
  Mean Bodyweight: 286.67 g
[8]
  Mean Bodyweight Gain: 48.67 g
  Mean Food Consumption: 23.68
Male rats, 100 mg/kg/day, Day −1 → 28
  Mean Bodyweight Gain: 150.20 g
Male rats, 100 mg/kg/day, Day −2 (pre-dose)
  Mean Bodyweight: 278.57 g
Male rats, 100 mg/kg/day
  Decrease of group mean food consumption compared to Group 1 controls: 4.9%
Male rats, 300 mg/kg/day
  Levels of urinary ketones: increased
  Decrease of group mean food consumption compared to Group 1 controls: 16.7%
Male rats, 300 mg/kg/day for 28 days, Day 28 → 35 (recovery)
  Mean Food Consumption: 26.98
Male rats, 300 mg/kg/day for 28 days, Day 28 → 42 (recovery)
  Mean Bodyweight Gain: 50.60 g
Male rats, 300 mg/kg/day for 28 days, Day 35 (recovery)
  Mean Bodyweight: 415.68 dd^3 g
Male rats, 300 mg/kg/day for 28 days, Day 35 → 42 (recovery)
  Mean Food Consumption: 28.99
Male rats, 300 mg/kg/day for 28 days, Day 42 (recovery)
  Mean Bodyweight: 446.14 d^4 g
Male rats, 300 mg/kg/day, Day 7
  Mean Bodyweight: 321.93 dd^2 g
[9]
  Mean Bodyweight Gain: 28.89 dd^3 g
  Mean Food Consumption: 20.24 dd^2
Male rats, 300 mg/kg/day, Day 14
  Mean Bodyweight: 350.83 dd^2 g
[10]
  Mean Bodyweight Gain: 21.21 dd^3 g
  Mean Food Consumption: 21.50 dd^2
Male rats, 300 mg/kg/day, Day 21
  Mean Bodyweight: 372.04 dd^2 g
[11]
  Mean Bodyweight Gain: 16.71 dd^3 g
  Mean Food Consumption: 20.78 dd^2
[12]
  Decrease of group mean body weight compared to Group 1 controls: 16.2%
  Mean Bodyweight: 388.75 dd^2 g
Male rats, 300 mg/kg/day, Day −1 (pre-dose)
  Mean Bodyweight: 287.50 g
[13]
  Mean Bodyweight Gain: 34.43 dd^3 g
  Mean Food Consumption: 19.83 dd^2
Male rats, 300 mg/kg/day, Day −1 → 28
  Mean Bodyweight Gain: 101.25 dd^3 g
Male rats, 300 mg/kg/day, Day −2 (pre-dose)
  Mean Bodyweight: 278.97 g
Male rats, 100 and 300 mg/kg/day
  Mean serum triglyceride concentrations: Decreased
Male rats, Group 2 (30 mg/kg/day)
  Group mean weight gain from Day −1 to 28: 180 grams
Male rats, Group 3 (100 mg/kg/day)
  Group mean weight gain from Day −1 to 28: 150 grams
Male rats, Group 4 (300 mg/kg/day)
  Group mean weight gain from Day −1 to 28: 101 grams
Rats previously administered 300 mg/kg/day for 28 days
  Effects on serum triglyceride concentrations and red cell mass at the end of the 14-day recovery period: persisted
rats, 30 mg/kg/day
  Alterations considered related to test article administration: no alterations
rats, 300 mg/kg/day, Day 43 following 2-week treatment-free recovery
  Organ weight, macroscopic or microscopic findings after recovery: no J147-related organ weight, macroscopic or microscopic findings
rats, 14-day recovery period
  Recovery of body weight and body weight gain: Full recovery
rats, Day 1, males at all dose levels, females at 100 and 300 mg/kg/day, not considered adverse
  Motor activity portion of the Functional Observational Battery (FOB): general decrease in activity
[14]
  Subacute perivascular inflammation in the liver (microscopic): noted
  Thymic lymphoid depletion: noted
rats, both sexes, 28-day oral gavage
  lowest-observed-adverse-effect-level (LOAEL): 100 mg/kg/day
[15]
  Body weight, body weight gain, and food consumption: decreased
  Food consumption compared to Group 1 controls: decreased
  Group mean thymus weights: Decreases
  Hepatocellular hypertrophy (microscopic): seen
rats, both sexes, all dose levels
  Prothrombin time: decreased
rats, end of 28-day treatment, all dose levels, both sexes
  Mean platelet and reticulocyte counts: increased
rats, end of 28-day treatment, males at all dose levels, females at 100 and 300 mg/kg/day
  Mean red blood cell counts, hematocrit, and hemoglobin values: decreased
rats, one or two animals at 300 mg/kg/day
  Terminal necropsy findings: enlarged liver and small thymus
rats, recovery period
  J147-related effects on body weight and food consumption following cessation of treatment: reversible
rats, some animals of both sexes, 300 mg/kg/day
  Noteworthy clinical observations during the 28-day treatment period: soft feces
rats, both sexes at 300 mg/kg/day, males at 100 mg/kg/day
  Incidence of single cell necrosis of acinar cells in the pancreas: increased
rats, males at 100 mg/kg/day, both sexes at 300 mg/kg/day
  Mean serum glucose concentrations: Decreased
rats, males at all dose levels, females at 100 and 300 mg/kg/day
  Group mean liver weights: increased
